Measurements from PMC5617480 (Oncotarget, 2017).

Tested on: telomeres/telomerase-related genes
Test: RT-qPCR array (Telomeres & Telomerase PCR Array)
Type: cell-based, human
Details: BEL-7404 cells, 10 μM, 24 h
Experimental: To determine the mechanism(s), we further explored the effect of complex 6 on the expression of telomeres/telomerase-related genes (such as TRF1, hTERT, TRF2, c-myc, and 53BP1) in the BEL-7404 model. Firstly, RT-qPCR array was used to determine mRNA levels of telomeres/telomerase-related gene expressions in BEL-7404 cells when the cells were treated with complex 6. […] Secondly, these telomerase-related genes were determined by western blot. […]
In addition, RNA
30.0 min at room temperature in the dark. Finally, the extraction, RT-PCR, and the selective binding to G4s by BEL-7404 cell cycle was determined with FACS Calibur complexes 4–6 was according to the our previous reported flow cytometer (BD) and analyzed using Cell Quest. […]
ME). Gene expression by a panel of genes for RT-Determination of caspase-3/9 activity by flow qPCR array cytometric analysis Differential expression of telomeres/telomerase-related genes was analyzed using the Telomeres &
Colorimetric analysis of caspase-9 and caspase-3 Telomerase PCR Array (RT2 Profiler™ PCR Array Human activation in BEL-7404 cells exposed to 10 μM of Telomeres & Telomerase, PAHS-010Z, SABioscience, complexes 4–6 for 24.0 h were carried out using the USA) obtained from Kangchen Bio-tech, Shanghai, China.
CaspGLOW™ Fluorescein Active Caspase-9/Caspase-3 RNA was extracted according to standard protocols and Staining Kit. The BEL-7404 cells treated with complexes converted to first strand cDNA using the RT2 First Strand 4–6 and the controlled BEL-7404 cells were harvested Kit. The template was added to an instrument specific, from RPMI 1640 medium with 10% FBS, in a density of ready-to-use RT2 SYBR Green qPCR Master Mix. The 1.0 × 10^6 cells per milliliter. These cells were washed with resulting mixture was added to the wells (25.0 μL/well) of PBS and centrifuged for 3 times, and were then mixed the PCR Array plate containing the telomere maintenance, with 500 μL culture. 1.0 μL of FITC-LEHD-FMK or/telomere-associated complexes, telomere regulation and FITC-DEVD-FMK were consequently added and other genes associated with telomeres gene-specific primer incubated for 2.0 h at 37 °C with 5% CO2. The BEL- sets (25 μL for 96-well plates) and PCR was performed.
7404 cells were then determined with a FACS AriaII flow The threshold cycle (Ct) values for all the genes on each cytometer equipped with a 488 nm argon laser. Results PCR Array were calculated using the instrument specific were represented as the percent change on the activity software and the fold-changes in gene expression for pair-comparing with the control group. wise comparison were calculated using the 2-ΔCt method.
Western blot assay TRAP Assay (TRAP-silver staining assay)
The BEL-7404 Cells were treated with the same as Each telomerase extract was prepared from BEL-the above for 24.0 h with complexes 4–6 (10 μM), and 7404 cells. A modified version of the TRAP assay was total proteins were extracted by lysis buffer RIPA. Then used. The PCR was performed in a final […] use BCA protein assay to measure concentrations of each reaction volume composed of reaction mix ([…]) sample. After electrophoresis on 10% PAGE-SDS gel containing pH 8.0 Tris-HCl (20.0 mM), deoxynucleotide and blotting, anti-mutp53, 53BP1, TRF1, TRF2, hTERT, triphosphates ([…]), BSA (20 mg/mL), primer

cis-[PtCl2(S-(–)-FOA)] [complex 6]
Fold Change, ABL1: 0.80
Fold Change, ACD: 1.16
Fold Change, ACTB: 0.76
Fold Change, AKT1: 0.77
Fold Change, ATM: 1.08
Fold Change, ATP5C1: 1.19
Fold Change, B2M: 1.15
Fold Change, BCL2: 0.76
Fold Change, BLM: 1.21
Fold Change, CDK2: 0.80
Fold Change, CHEK1: 1.13
Fold Change, CHEK2: 1.23
Fold Change, DCLRE1B: 0.81
Fold Change, DCLRE1C: 1.20
Fold Change, DKC1: 1.14
Fold Change, EGF: 1.11
Fold Change, EME1: 1.26
Fold Change, ERCC1: 1.00
Fold Change, ERCC4: 1.22
Fold Change, GAPDH: 0.97
Fold Change, GAR1: 0.95
Fold Change, HAT1: 1.13
Fold Change, HNRNPA2B1: 1.06
Fold Change, HNRNPD: 0.95
Fold Change, HPRT1: 1.14
Fold Change, HSP90AA1: 1.35
Fold Change, HSPA1L: 1.65
Fold Change, IGF1: 0.02
Fold Change, KRAS: 0.88
Fold Change, KRIT1: 1.12
Fold Change, MEN1: 1.14
Fold Change, MRE11A: 1.41
Fold Change, MSH2: 0.90
Fold Change, MSH3: 0.66
Fold Change, MUS81: 1.55
Fold Change, MYC: 0.75
Fold Change, NBN: 0.79
Fold Change, NCL: 1.04
Fold Change, NHP2: 1.46
Fold Change, NOP10: 0.82
Fold Change, OBFC1: 1.32
Fold Change, PARP1: 1.02
Fold Change, PAX8: 9.91
Fold Change, PIF1: 0.84
Fold Change, PINX1: 1.13
Fold Change, PLK1: 0.72
Fold Change, POT1: 0.87
Fold Change, PPARG: 1.08
Fold Change, PPP2R1A: 0.88
Fold Change, PPP2R1B: 0.68
Fold Change, PRKCA: 1.12
Fold Change, PRKCB: 0.48
Fold Change, PRKDC: 0.83
Fold Change, PTGES3: 1.07
Fold Change, PURA: 1.07
Fold Change, RAD17: 1.11
Fold Change, RAD50: 1.44
Fold Change, RAP1A: 0.90
Fold Change, RAPGEF1: 0.97
Fold Change, RASSF1: 1.26
Fold Change, RB1: 0.59
Fold Change, RFC1: 1.33
Fold Change, RIF1: 1.67
Fold Change, RPLP0: 1.05
Fold Change, RTEL1: 0.39
Fold Change, SART1: 1.50
Fold Change, SIRT2: 0.84
Fold Change, SIRT6: 1.89
Fold Change, SLX4: 0.87
Fold Change, SMAD3: 0.65
Fold Change, SMG6: 1.05
Fold Change, SP1: 0.70
Fold Change, SSB: 1.14
Fold Change, SUN1: 1.04
Fold Change, TEP1: 1.73
Fold Change, TERF1: 1.39
Fold Change, TERF2: 0.99
Fold Change, TERF2IP: 1.47
Fold Change, TERT: 0.89
Fold Change, TGFB1: 1.46
Fold Change, TINF2: 1.14
Fold Change, TNKS: 1.12
Fold Change, TNKS2: 1.02
Fold Change, TP53: 1.45
Fold Change, TP53BP1: 1.18
Fold Change, TPP1: 1.07
Fold Change, WRAP53: 0.94
Fold Change, XRCC5: 0.76
Fold Change, XRCC6: 1.15
Fold Up-or Down-Regulation, ABL1: -1.25
Fold Up-or Down-Regulation, ACD: 1.16
Fold Up-or Down-Regulation, ACTB: -1.32
Fold Up-or Down-Regulation, AKT1: -1.30
Fold Up-or Down-Regulation, ATM: 1.08
Fold Up-or Down-Regulation, ATP5C1: 1.19
Fold Up-or Down-Regulation, B2M: 1.15
Fold Up-or Down-Regulation, BCL2: -1.32
Fold Up-or Down-Regulation, BLM: 1.21
Fold Up-or Down-Regulation, CDK2: -1.24
Fold Up-or Down-Regulation, CHEK1: 1.13
Fold Up-or Down-Regulation, CHEK2: 1.23
Fold Up-or Down-Regulation, DCLRE1B: -1.24
Fold Up-or Down-Regulation, DCLRE1C: 1.20
Fold Up-or Down-Regulation, DKC1: 1.14
Fold Up-or Down-Regulation, EGF: 1.11
Fold Up-or Down-Regulation, EME1: 1.26
Fold Up-or Down-Regulation, ERCC1: -1.00
Fold Up-or Down-Regulation, ERCC4: 1.22
Fold Up-or Down-Regulation, GAPDH: -1.04
Fold Up-or Down-Regulation, GAR1: -1.05
Fold Up-or Down-Regulation, HAT1: 1.13
Fold Up-or Down-Regulation, HNRNPA2B1: 1.06
Fold Up-or Down-Regulation, HNRNPD: -1.06
Fold Up-or Down-Regulation, HPRT1: 1.14
Fold Up-or Down-Regulation, HSP90AA1: 1.35
Fold Up-or Down-Regulation, HSPA1L: 1.65
Fold Up-or Down-Regulation, IGF1: -57.88
Fold Up-or Down-Regulation, KRAS: -1.13
Fold Up-or Down-Regulation, KRIT1: 1.12
Fold Up-or Down-Regulation, MEN1: 1.14
Fold Up-or Down-Regulation, MRE11A: 1.41
Fold Up-or Down-Regulation, MSH2: -1.11
Fold Up-or Down-Regulation, MSH3: -1.51
Fold Up-or Down-Regulation, MUS81: 1.55
Fold Up-or Down-Regulation, MYC: -1.33
Fold Up-or Down-Regulation, NBN: -1.27
Fold Up-or Down-Regulation, NCL: 1.04
Fold Up-or Down-Regulation, NHP2: 1.46
Fold Up-or Down-Regulation, NOP10: -1.22
Fold Up-or Down-Regulation, OBFC1: 1.32
Fold Up-or Down-Regulation, PARP1: 1.02
Fold Up-or Down-Regulation, PAX8: 9.91
Fold Up-or Down-Regulation, PIF1: -1.19
Fold Up-or Down-Regulation, PINX1: 1.13
Fold Up-or Down-Regulation, PLK1: -1.39
Fold Up-or Down-Regulation, POT1: -1.14
Fold Up-or Down-Regulation, PPARG: 1.08
Fold Up-or Down-Regulation, PPP2R1A: -1.13
Fold Up-or Down-Regulation, PPP2R1B: -1.46
Fold Up-or Down-Regulation, PRKCA: 1.12
Fold Up-or Down-Regulation, PRKCB: -2.06
Fold Up-or Down-Regulation, PRKDC: -1.20
Fold Up-or Down-Regulation, PTGES3: 1.07
Fold Up-or Down-Regulation, PURA: 1.07
Fold Up-or Down-Regulation, RAD17: 1.11
Fold Up-or Down-Regulation, RAD50: 1.44
Fold Up-or Down-Regulation, RAP1A: -1.11
Fold Up-or Down-Regulation, RAPGEF1: -1.03
Fold Up-or Down-Regulation, RASSF1: 1.26
Fold Up-or Down-Regulation, RB1: -1.70
Fold Up-or Down-Regulation, RFC1: 1.33
Fold Up-or Down-Regulation, RIF1: 1.67
Fold Up-or Down-Regulation, RPLP0: 1.05
Fold Up-or Down-Regulation, RTEL1: -2.58
Fold Up-or Down-Regulation, SART1: 1.50
Fold Up-or Down-Regulation, SIRT2: -1.19
Fold Up-or Down-Regulation, SIRT6: 1.89
Fold Up-or Down-Regulation, SLX4: -1.15
Fold Up-or Down-Regulation, SMAD3: -1.55
Fold Up-or Down-Regulation, SMG6: 1.05
Fold Up-or Down-Regulation, SP1: -1.43
Fold Up-or Down-Regulation, SSB: 1.14
Fold Up-or Down-Regulation, SUN1: 1.04
Fold Up-or Down-Regulation, TEP1: 1.73
Fold Up-or Down-Regulation, TERF1: 1.39
Fold Up-or Down-Regulation, TERF2: -1.01
Fold Up-or Down-Regulation, TERF2IP: 1.47
Fold Up-or Down-Regulation, TERT: -1.12
Fold Up-or Down-Regulation, TGFB1: 1.46
Fold Up-or Down-Regulation, TINF2: 1.14
Fold Up-or Down-Regulation, TNKS: 1.12
Fold Up-or Down-Regulation, TNKS2: 1.02
Fold Up-or Down-Regulation, TP53: 1.45
Fold Up-or Down-Regulation, TP53BP1: 1.18
Fold Up-or Down-Regulation, TPP1: 1.07
Fold Up-or Down-Regulation, WRAP53: -1.06
Fold Up-or Down-Regulation, XRCC5: -1.32
Fold Up-or Down-Regulation, XRCC6: 1.15
